Test results as given in ChEMBL document CHEMBL1201861, “Genomics of Drug Sensitity in Cancer screening data, Wellcome Trust Sanger Institute”.

Assays:
Experiment in all cases: cells
Conditions in all cases: Homo sapiens
A-427 = type: functional, cell-based;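 further: growth inhibition of human A-427 cells, read out by a cell viability assay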
Description: SANGER: Inhibition of human A427 cell growth in a cell viability assay.

SKG-IIIa = type: functional, cell-based;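 further: cell growth inhibition, read out with a cell viability assay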
Description: SANGER: Inhibition of human SKG-IIIa cell growth in a cell viability assay.

BCPAP = type: functional, cell-based;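 further: growth inhibition of BCPAP cells, read out in a cell viability assay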
Description: SANGER: Inhibition of human BCPAP cell growth in a cell viability assay.

WM-115 = type: functional, cell-based
Description: SANGER: Inhibition of human WM-115 cell growth in a cell viability assay.

COLO-679 = type: functional, cell-based
Description: SANGER: Inhibition of human COLO-679 cell growth in a cell viability assay.

FaDu = type: functional, cell-based;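 further: cell viability readout of growth inhibition in FaDu cells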
Description: SANGER: Inhibition of human FADU cell growth in a cell viability assay.

P12-Ichikawa = type: functional, cell-based
KU-19-19 = type: functional, cell-based
Description: SANGER: Inhibition of human KU-19-19 cell growth in a cell viability assay.

HCC 2998 = type: functional, cell-based;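 further: growth inhibition of human HCC2998 cells, measured with a cell viability read-out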
Description: SANGER: Inhibition of human HCC2998 cell growth in a cell viability assay.

MEL-HO = type: functional, cell-based
Description: SANGER: Inhibition of human MEL-HO cell growth in a cell viability assay.

SW13 = type: functional, cell-based;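 further: IC50 is inhibition of SW13 cell growth, read out with a cell viability assay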
Description: SANGER: Inhibition of human SW13 cell growth in a cell viability assay.

EFO-21 = type: functional, cell-based;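 further: growth inhibition of EFO-21 cells measured with a viability assay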
Description: SANGER: Inhibition of human EFO-21 cell growth in a cell viability assay.

ACHN = type: functional, cell-based;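 further: cell viability read-out used to gauge how strongly growth of human ACHN cells is suppressed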
Description: SANGER: Inhibition of human ACHN cell growth in a cell viability assay.

IGR-1 = type: functional, cell-based;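 further: growth inhibition of human IGR-1 cells, read out with a cell viability assay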
Description: SANGER: Inhibition of human IGR-1 cell growth in a cell viability assay.

CAL-120 = type: functional, cell-based;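 further: cell growth inhibition, read out as cell viability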
Description: SANGER: Inhibition of human CAL-120 cell growth in a cell viability assay.

CHL-1 = type: functional, cell-based;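 further: cell growth inhibition, read out with a cell viability assay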
Description: SANGER: Inhibition of human CHL-1 cell growth in a cell viability assay.

RCM-1 = type: functional, cell-based;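 further: growth inhibition of the RCM-1 line, determined with a cell viability readout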
Description: SANGER: Inhibition of human RCM-1 cell growth in a cell viability assay.

VM-CUB-1 = type: functional, cell-based;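 further: cell viability assay measuring growth inhibition of the human VM-CUB-1 cell line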
Description: SANGER: Inhibition of human VM-CUB-1 cell growth in a cell viability assay.

NCI-H727 = type: functional, cell-based;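 further: growth inhibition of human NCI-H727 cells, read out with a cell viability assay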
Description: SANGER: Inhibition of human NCI-H727 cell growth in a cell viability assay.

PC-3 = type: functional, cell-based;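 further: cell viability assay measuring growth inhibition of PC-3 cells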
Description: SANGER: Inhibition of human PC-3 cell growth in a cell viability assay.

KYSE-140 = type: functional, cell-based;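 further: cell viability assay measuring growth inhibition in human KYSE-140 cells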
Description: SANGER: Inhibition of human KYSE-140 cell growth in a cell viability assay.

OVCAR-5 = type: functional, cell-based;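 further: growth inhibition of human OVCAR-5 cells, read out with a cell viability assay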
Description: SANGER: Inhibition of human OVCAR-5 cell growth in a cell viability assay.

NCI-H2170 = type: functional, cell-based;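 further: cell viability assay measuring growth inhibition of human NCI-H2170 cancer cells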
Description: SANGER: Inhibition of human NCI-H2170 cell growth in a cell viability assay.

SK-MEL-30 = type: functional, cell-based;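 further: growth inhibition of SK-MEL-30 cells, determined with a cell viability assay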
Description: SANGER: Inhibition of human SK-MEL-30 cell growth in a cell viability assay.

NCI-H630 = type: functional, cell-based;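 further: growth inhibition of NCI-H630 cells, read out with a cell viability assay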
Description: SANGER: Inhibition of human NCI-H630 cell growth in a cell viability assay.

MCF7 = type: functional, cell-based;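 further: growth inhibition of human MCF7 cells, read out with a cell viability assay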
Description: SANGER: Inhibition of human MCF7 cell growth in a cell viability assay.

BHY = type: functional, cell-based;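 further: cell growth inhibition read out by a viability assay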
Description: SANGER: Inhibition of human BHY cell growth in a cell viability assay.

SK-MEL-28 = type: functional, cell-based;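 further: growth inhibition of human SK-MEL-28 cells, read out with a cell viability assay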
Description: SANGER: Inhibition of human SK-MEL-28 cell growth in a cell viability assay.

HuCCT-1 = type: functional, cell-based, HuCCT1;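 further: growth inhibition of HuCCT-1 cells, read out by a cell viability assay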
Description: SANGER: Inhibition of human HuCCT1 cell growth in a cell viability assay.

NCI-H441 = type: functional, cell-based;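 further: growth inhibition of NCI-H441 cells, read out with a cell viability assay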
Description: SANGER: Inhibition of human NCI-H441 cell growth in a cell viability assay.

NB7 = type: functional, cell-based;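 further: growth inhibition of NB7 cells, read out with a cell viability assay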
Description: SANGER: Inhibition of human NB7 cell growth in a cell viability assay.

Panc1005 = type: functional, cell-based;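 further: growth inhibition of human PANC-10-05 cells, measured by a cell viability assay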
Description: SANGER: Inhibition of human PANC-10-05 cell growth in a cell viability assay.

CAKI-1 = type: functional, cell-based;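 further: growth inhibition of CAKI-1 cells, measured by a cell viability assay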
Description: SANGER: Inhibition of human CAKI-1 cell growth in a cell viability assay.

M14 = type: functional, cell-based;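 further: growth inhibition of M14 cells, read out with a cell viability assay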
Description: SANGER: Inhibition of human M14 cell growth in a cell viability assay.

SW1417 = type: functional, cell-based;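 further: growth inhibition of human SW1417 cells, read out with a cell viability assay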
Description: SANGER: Inhibition of human SW1417 cell growth in a cell viability assay.

786-0 = type: functional, cell-based
Description: SANGER: Inhibition of human 786-0 cell growth in a cell viability assay.

LK-2 = type: functional, cell-based;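 further: growth inhibition of LK-2 cells, read out with a viability assay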
Description: SANGER: Inhibition of human LK-2 cell growth in a cell viability assay.

HCC1937 = type: functional, cell-based;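 further: growth inhibition measured with a cell viability read-out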
Description: SANGER: Inhibition of human HCC1937 cell growth in a cell viability assay.

PANC-03-27 = type: functional, cell-based
Description: SANGER: Inhibition of human PANC-03-27 cell growth in a cell viability assay.

NCI-H2342 = type: functional, cell-based;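 further: growth inhibition of the cancer cell line, determined with a cell viability assay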
Description: SANGER: Inhibition of human NCI-H2342 cell growth in a cell viability assay.

Daoy = type: functional, cell-based;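 further: daoy cell growth inhibition, read out as cell viability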
Description: SANGER: Inhibition of human Daoy cell growth in a cell viability assay.

HuP-T4 = type: functional, cell-based;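 further: cell viability assay measuring how much HuP-T4 cell growth is inhibited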
Description: SANGER: Inhibition of human HuP-T4 cell growth in a cell viability assay.

COLO-741 = type: functional, cell-based
Description: SANGER: Inhibition of human COLO-741 cell growth in a cell viability assay.

CAPAN-1 = type: functional, cell-based;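 further: growth suppression of CAPAN-1 cells, read out by a cell viability assay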
Description: SANGER: Inhibition of human CAPAN-1 cell growth in a cell viability assay.

BPH-1 = type: functional, cell-based;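 further: cell viability assay measuring growth inhibition of human BPH-1 cells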
Description: SANGER: Inhibition of human BPH-1 cell growth in a cell viability assay.

Huh-7 = type: functional, cell-based;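 further: HuH-7 cell growth inhibition, read out with a cell viability assay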
Description: SANGER: Inhibition of human HuH-7 cell growth in a cell viability assay.

COR-L105 = type: functional, cell-based;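 further: cell growth inhibition determined with a viability assay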
Description: SANGER: Inhibition of human COR-L105 cell growth in a cell viability assay.

GMS-10 = type: functional, cell-based;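 further: growth inhibition of GMS-10 cells, read out as cell viability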
Description: SANGER: Inhibition of human GMS-10 cell growth in a cell viability assay.

T84 = type: functional, cell-based;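 further: growth inhibition measured with a cell viability readout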
Description: SANGER: Inhibition of human T84 cell growth in a cell viability assay.

HCC1419 = type: functional, cell-based;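 further: growth inhibition of human HCC1419 cells, read out as cell viability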
Description: SANGER: Inhibition of human HCC1419 cell growth in a cell viability assay.

DBTRG-05MG = type: functional, cell-based;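 further: cell viability assay measuring growth inhibition of human DBTRG-05MG cells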
Description: SANGER: Inhibition of human DBTRG-05MG cell growth in a cell viability assay.

`Cn1c(=O)n(-c2ccc(C(C)(C)C#N)cc2)c2c3cc(-c4cnc5ccccc5c4)ccc3ncc21` [DACTOLISIB] was tested, and the IC50 (A-427) was 183 nM, the IC50 (SKG-IIIa) was 129 nM and the IC50 (BCPAP) was 18.7 nM. It also gave an IC50 (WM-115) of 68.1 nM, an IC50 (COLO-679) of 122 nM and an IC50 (FaDu) of 267 nM. It also gave an IC50 (P12-Ichikawa) of 15.1 nM, an IC50 (KU-19-19) of 31.1 nM and an IC50 (HCC 2998) of 118 nM. It also gave an IC50 (MEL-HO) of 24 nM, an IC50 (SW13) of 66.5 nM and an IC50 (EFO-21) of 288 nM. It also gave an IC50 (ACHN) of 357 nM, an IC50 (IGR-1) of 46.1 nM and an IC50 (CAL-120) of 34.7 nM. For the same compound, the IC50 (CHL-1) was 15.5 nM, the IC50 (RCM-1) was 497 nM and the IC50 (VM-CUB-1) was 33.4 nM. For the same compound, the IC50 (NCI-H727) was 412 nM, the IC50 (PC-3) was 5.09 nM and the IC50 (KYSE-140) was 50.6 nM. The IC50 (OVCAR-5) was 35.5 nM, the IC50 (NCI-H2170) was 115 nM and the IC50 (SK-MEL-30) was 196 nM. For the same compound, the IC50 (NCI-H630) was 913 nM, the IC50 (MCF7) was 48.6 nM and the IC50 (BHY) was 42.7 nM. The IC50 (SK-MEL-28) was 112 nM, the IC50 (HuCCT-1) was 90.8 nM and the IC50 (NCI-H441) was 895 nM. For the same compound, the IC50 (NB7) was 190 nM, the IC50 (Panc1005) was 246 nM and the IC50 (CAKI-1) was 36.4 nM. For the same compound, the IC50 (M14) was 60 nM, the IC50 (SW1417) was > 2000 nM and the IC50 (786-0) was 22.3 nM. For the same compound, the IC50 (LK-2) was 77.1 nM, the IC50 (HCC1937) was 187 nM and the IC50 (PANC-03-27) was 76.3 nM. It also gave an IC50 (NCI-H2342) of 590 nM, an IC50 (Daoy) of 36.7 nM and an IC50 (HuP-T4) of 127 nM. For the same compound, the IC50 (COLO-741) was 1500 nM, the IC50 (CAPAN-1) was > 2000 nM and the IC50 (BPH-1) was 4.76 nM. It also gave an IC50 (Huh-7) of 18.4 nM, an IC50 (COR-L105) of 15 nM and an IC50 (GMS-10) of 174 nM. The IC50 (T84) was > 2000 nM, the IC50 (HCC1419) was 38.7 nM and the IC50 (DBTRG-05MG) was 198 nM.
For `C[C@]12O[C@H](C[C@]1(O)CO)n1c3ccccc3c3c4c(c5c6ccccc6n2c5c31)CNC4=O` [LESTAURTINIB], the IC50 (A-427) was 23.4 nM, the IC50 (SKG-IIIa) was 255 nM and the IC50 (BCPAP) was 970 nM. The IC50 (WM-115) was > 2000 nM, the IC50 (COLO-679) was 383 nM and the IC50 (FaDu) was 648 nM. The IC50 (P12-Ichikawa) was 26.2 nM, the IC50 (KU-19-19) was 1330 nM and the IC50 (HCC 2998) was 554 nM. For the same compound, the IC50 (MEL-HO) was 120 nM, the IC50 (SW13) was 617 nM and the IC50 (EFO-21) was > 2000 nM. For the same compound, the IC50 (ACHN) was 104 nM, the IC50 (IGR-1) was 1490 nM and the IC50 (CAL-120) was 336 nM. For the same compound, the IC50 (CHL-1) was 13.5 nM, the IC50 (RCM-1) was 1590 nM and the IC50 (VM-CUB-1) was 651 nM. The IC50 (NCI-H727) was 768 nM, the IC50 (PC-3) was 1710 nM and the IC50 (KYSE-140) was 449 nM. For the same compound, the IC50 (OVCAR-5) was 504 nM, the IC50 (NCI-H2170) was > 2000 nM and the IC50 (SK-MEL-30) was 512 nM. The IC50 (NCI-H630) was > 2000 nM, the IC50 (MCF7) was > 2000 nM and the IC50 (BHY) was 872 nM. For the same compound, the IC50 (SK-MEL-28) was 327 nM, the IC50 (HuCCT-1) was 862 nM and the IC50 (NCI-H441) was > 2000 nM. The IC50 (NB7) was 899 nM, the IC50 (Panc1005) was > 2000 nM and the IC50 (CAKI-1) was 334 nM. It also gave an IC50 (M14) of 50.6 nM, an IC50 (SW1417) of 1170 nM and an IC50 (786-0) of 1560 nM. For the same compound, the IC50 (LK-2) was 428 nM, the IC50 (HCC1937) was > 2000 nM and the IC50 (PANC-03-27) was 342 nM. For the same compound, the IC50 (NCI-H2342) was > 2000 nM, the IC50 (Daoy) was 1040 nM and the IC50 (HuP-T4) was 1330 nM. For the same compound, the IC50 (COLO-741) was 1430 nM, the IC50 (CAPAN-1) was > 2000 nM and the IC50 (BPH-1) was 1300 nM. The IC50 (Huh-7) was > 2000 nM, the IC50 (COR-L105) was > 2000 nM and the IC50 (GMS-10) was 463 nM. For the same compound, the IC50 (T84) was > 2000 nM, the IC50 (HCC1419) was > 2000 nM and the IC50 (DBTRG-05MG) was > 2000 nM.
